Literature values as cited in patent US10500240B2, “Use of terminalia chebula extract for treatment of osteoarthritis” (Natreon, Inc., priority 2013, dated 2019).

Tests used:
[1] = tested on: COX-1
[2] = tested on: 5-LOX
[3] = tested on: HepG2 cells; conditions: with doxorubicin
[4] = molecular target: maltase; conditions: reversible and non-competitive inhibitor; read-out: K(i) value, maltase

IC50 [1]: 15 ± 0.288 µM
IC50 [2]: 2.1 ± 0.057 µM
Ki [4]: 6.6 µM
SMILES: O=C(O)CC1C(=O)OC2C3COC(=O)c4cc(O)c(O)c(O)c4-c4c(cc(O)c(O)c4O)C(=O)OC2C(OC(=O)c2cc(O)c(O)c4c2C1C(O)C(=O)O4)C(OC(=O)c1cc(O)c(O)c(O)c1)O3 [Chebulagic acid, beta-1-O-galloyl-2,4-chebuloyl-3,6-(R)-hexahydroxydiphenoyl-D-glucose]
enhanced the cytotoxicity of doxorubicin in HepG2 cells [3]: 20 fold
